# How the values were obtained:
# [1] = target: T1, dextransucrase from Leuconostoc mesenteroides URE 13; assay: fructose/glucose release from sucrose, coupled hexokinase assay; Lineweaver-Burk; type: biochemical; conditions: 1-200 mmol sucrose, 20 mmol/L sodium acetate pH 5.2, 30 °C, inhibition mode not stated
# T1 construct: native extracellular enzyme, 180 kDa, from sucrose-grown culture; PEG 1500 precipitation and Sepharose CL-6B size-exclusion
# [2] = system: T1, dextransucrase from Leuconostoc mesenteroides URE 13; assay: fructose/glucose release from sucrose, coupled hexokinase assay; type: biochemical; conditions: 20 mmol/L sodium acetate pH 5.2-5.3, 30 °C; substrate inhibition above 200 mmol
# [3] = terpenoid dissolved in DMSO (20% final)
"Ki [1, 3] [mmol]",SMILES,also measured
–,C[C@H]1O[C@H](O[C@H]2[C@H](O)[C@@H](O)[C@@H](O[C@H]3[C@H](O)[C@@H](O)C(O)O[C@@H]3CO)O[C@@H]2CO)[C@H](O)[C@@H](O)[C@@H]1N[C@H]1C=C(CO)[C@@H](O)[C@H](O)[C@H]1O (stereo partly shown) [acarbose],Ki [1]: 0.29 mmol
0.28,CC(=O)OC1C=CC2C(=O)OCC23CCC2C(=O)OC(c4ccoc4)C(OC(C)=O)C2(C)C13 (stereo not shown) [splendidin],–
–,OC[C@H]1O[C@@](CO)(O[C@H]2O[C@H](CO)[C@@H](O)[C@H](O)[C@H]2O)[C@@H](O)[C@@H]1O [sucrose],Km [2]: 18.0 mmol
0.37,C[C@H]1[C@H](C)CC[C@]2(C(=O)O)CC[C@]3(C)C(=CC[C@@H]4[C@@]5(C)CC[C@H](O)C(C)(C)[C@@H]5CC[C@]43C)[C@H]12 [ursolic acid],–
